Among the data in the RepoRT retention time repository (doi:10.1016/j.scitotenv.2015.09.145) are LC retention time values, retold here.

This data set in a line: Waters Atlantis T3, 100 × 2.1 mm, 3 µm, 0.1 mL/min, estimated dead time 2.2 min; A: water + 0.01% formic acid; B: methanol; gradient (min/%B) 0/2 3/2 20/100 29/100. To be noted: stereoisomer not certain.

As for `CNC(C)Cc1ccccc1` (stereo not given), the LC retention time was 13.5 min.

On to `CCC1OC(=O)CC(O)C(C)C(OC2OC(C)C(OC3CC(C)(O)C(O)C(C)O3)C(N(C)C)C2O)C(CC=O)CC(C)C(=O)C=CC(C)=CC1COC1OC(C)C(O)C(OC)C1OC` (stereo not given), for which the LC retention time was 18.3 min.

As to `OCCOCCN1CCN(C2=Nc3ccccc3Sc3ccccc32)CC1`, the LC retention time was 17.6 min.

Take `CCN1CCCC1CNC(=O)c1cc(S(N)(=O)=O)ccc1OC` (stereo not given): the LC retention time was 11.6 min. `Cn1c(=O)c2[nH]cnc2n(C)c1=O`: the LC retention time is 14.3 min.

As for `CC(=O)Nc1ccc(O)cc1`, the LC retention time was 13.1 min. Under `CN=C(NC#N)NCCSCc1nc[nH]c1C` stands 11.9 min; under `CCCCC(=O)N(Cc1ccc(-c2ccccc2-c2nn[nH]n2)cc1)C(C(=O)O)C(C)C` (stereo not given), 23.2 min; under `c1ccc2c(c1)Cc1cccnc1N1CCNCC21` (stereo not given), 15.7 min. In the case of `CN(C)CCC=C1c2ccccc2CCc2ccccc21`, the LC retention time was 18.9 min.

`CC(N)Cc1ccccc1` (stereo not given): the LC retention time is 13.3 min. On to `CNCCC(Oc1cccc2ccccc12)c1cccs1` (stereo not given), for which the LC retention time was 18.7 min.

`NC(=O)N1c2ccccc2CC(=O)c2ccccc21`: the LC retention time was 18.8 min. For `CCn1cc(C(=O)O)c(=O)c2cc3c(cc21)OCO3`, the LC retention time is 20.1 min. As for `Cc1ccc(-c2nc3ccc(C)cn3c2CC(=O)N(C)C)cc1`, the figure is 15.5 min; as for `CC(N)Cc1ccc2c(c1)OCO2` (stereo not given), 13.6 min; as for `CN(C)CCCN1c2ccccc2CCc2ccccc21`, 18.6 min.

As to `Nc1ccc(S(=O)(=O)Nc2cnc3ccccc3n2)cc1`, the LC retention time is 17.8 min.

As for `CCNC(C)Cc1ccc2c(c1)OCO2` (stereo not given), the LC retention time is 14.1 min.

Take `COC(=O)C1C(OC(=O)c2ccccc2)CC2CCC1N2C` (stereo not given): the LC retention time was 14.9 min. As for `Nc1ccc(S(=O)(=O)Nc2ncccn2)cc1`, the figure is 13.2 min; as for `CCC(C(N)=O)N1CCCC1=O` (stereo not given), 13.6 min; as for `COc1cc(NS(=O)(=O)c2ccc(N)cc2)nc(OC)n1`, 17.5 min. As for `COCC(NC(C)=O)C(=O)NCc1ccccc1` (stereo not given), the LC retention time was 16.8 min. In the case of `Cc1cc(NS(=O)(=O)c2ccc(N)cc2)no1`, the LC retention time is 15.7 min. Consider `CCC1(c2ccccc2)C(=O)NCNC1=O`, for which the LC retention time was 17 min. In the case of `CC(C)NCC(O)COc1ccc(CC(N)=O)cc1` (stereo not given), the LC retention time was 11.7 min. As for `CNCCC=C1c2ccccc2CCc2ccccc21`, the figure is 19.1 min; as for `CCC1OC(=O)C(C)C(OC2CC(C)(OC)C(O)C(C)O2)C(C)C(OC2OC(C)CC(N(C)C)C2O)C(C)(OC)CC(C)C(=O)C(C)C(O)C1(C)O` (stereo not given), 19.6 min. As to `CNC(=C[N+](=O)[O-])NCCSCc1ccc(CN(C)C)o1`, the LC retention time was 11.8 min. As for `CCN(CC)C(=O)C1C=C2c3cccc4[nH]cc(c34)CC2N(C)C1` (stereo not given), the figure is 15.8 min; as for `CNC(C)Cc1ccc2c(c1)OCO2` (stereo not given), 17.4 min. As for `CN1CCN2c3ncc(O)cc3Cc3ccccc3C2C1` (stereo not given), the figure is 14.4 min; as for `Cc1nnc(NS(=O)(=O)c2ccc(N)cc2)s1`, 14.8 min. As for `Nc1ccc(S(=O)(=O)Nc2ccccn2)cc1`, the figure is 13.8 min.

Turning to `COc1ccc(NS(=O)(=O)c2ccc(N)cc2)nn1`, the LC retention time is 16 min. Consider `Cc1cc(C)nc(NS(=O)(=O)c2ccc(N)cc2)n1`, for which the LC retention time was 15 min. As for `CN(C)C1C(=O)C(C(N)=O)=C(O)C2(O)C(=O)C3=C(O)c4c(O)cccc4C(C)(O)C3CC12` (stereo not given), the figure is 14.8 min. As for `COCCc1ccc(OCC(O)CNC(C)C)cc1` (stereo not given), the figure is 15 min; as for `CN1C2CCC1C(C(=O)O)C(OC(=O)c1ccccc1)C2` (stereo not given), 15.7 min.

`Cc1ncc([N+](=O)[O-])n1CCO`: the LC retention time was 13.2 min. As for `CC(C)NCC(O)COc1cccc2ccccc12` (stereo not given), the figure is 17.1 min; as for `CC=C1N(C)C(C)CC1(c1ccccc1)c1ccccc1` (stereo not given), 16.9 min; as for `Cn1c(=O)c2c(ncn2C)n(C)c1=O`, 15.2 min.

Regarding `CNCC(c1ccc(OC)cc1)C1(O)CCCCC1` (stereo not given), the LC retention time is 14.8 min. Regarding `CCC1OC(=O)C(C)C(OC2CC(C)(OC)C(O)C(C)O2)C(C)C(OC2OC(C)CC(N(C)C)C2O)C(C)(O)CC(C)CN(C)C(C)C(O)C1(C)O` (stereo not given), the LC retention time was 17.4 min. Turning to `NC(=O)N1c2ccccc2C=Cc2ccccc21`, the LC retention time was 20.1 min. For `CCN1CCCC1CNC(=O)c1cc(S(=O)(=O)CC)c(N)cc1OC` (stereo not given), the LC retention time is 13.4 min. As for `CCCC1CC(C(=O)NC(C(C)O)C2OC(SC)C(O)C(O)C2O)N(C)C1` (stereo not given), the figure is 13.3 min. As to `CC1c2cccc(O)c2C(O)=C2C(=O)C3(O)C(O)=C(C(N)=O)C(=O)C(N(C)C)C3C(O)C21` (stereo not given), the LC retention time was 17.7 min.

Consider `COc1cc(NS(=O)(=O)c2ccc(N)cc2)ncn1`, for which the LC retention time was 15.2 min. `CN(C)CCC=C1c2ccccc2COc2ccccc21`: the LC retention time was 17.6 min. Under `CCC1OC(=O)C(C)C(OC2CC(C)(OC)C(O)C(C)O2)C(C)C(OC2OC(C)CC(N(C)C)C2O)C(C)(O)CC(C)C(=O)C(C)C(O)C1(C)O` (stereo not given) stands 18.5 min; under `CN1CCN2c3ncccc3Cc3ccccc3C2C1` (stereo not given), 15.5 min. Under `O=C1CN=C(c2ccccc2)c2cc([N+](=O)[O-])ccc2N1` stands 20.4 min; under `CCN(C)C(=O)Oc1cccc(C(C)N(C)C)c1` (stereo not given), 14.8 min. On to `Cc1ccsc1C(=CCCN1CCCC(C(=O)O)C1)c1sccc1C` (stereo not given), for which the LC retention time was 19.6 min. As for `CN1CCC23c4c5ccc(O)c4OC2C(O)C=CC3C1C5` (stereo not given), the figure is 10.1 min; as for `NC(N)=NS(=O)(=O)c1ccc(N)cc1`, 7.11 min; as for `CCC(C)(C)C(=O)OC1CC(C)C=C2C=CC(C)C(CCC3CC(O)CC(=O)O3)C21` (stereo not given), 27 min.

`CC(=O)C1CCC2C3CCC4=CC(=O)CCC4(C)C3CCC12C` (stereo not given): the LC retention time is 24.7 min.

On to `COc1cc(Cc2cnc(N)nc2N)cc(OC)c1OC`, for which the LC retention time is 13.5 min.

Regarding `Cc1nc(NS(=O)(=O)c2ccc(N)cc2)oc1C`, the LC retention time was 16 min. Under `COc1ncnc(NS(=O)(=O)c2ccc(N)cc2)c1OC` stands 16 min; under `COc1cccc(C2(O)CCCCC2CN(C)C)c1` (stereo not given), 14.6 min; under `CC1(C)SC2C(NC(=O)C(N)c3ccc(O)cc3)C(=O)N2C1C(=O)O` (stereo not given), 28.1 min. As for `Cc1ccnc(NS(=O)(=O)c2ccc(N)cc2)n1`, the figure is 14.2 min; as for `CC1=C(C(=O)O)N2C(=O)C(NC(=O)C(N)c3ccccc3)C2SC1` (stereo not given), 14.3 min; as for `CN(C)C1C(=O)C(C(N)=O)=C(O)C2(O)C(=O)C3=C(O)c4c(O)cccc4C(C)(O)C3C(O)C12` (stereo not given), 15.1 min. For `CC(=O)Oc1ccc2c3c1OC1C(OC(C)=O)C=CC4C(C2)N(C)CCC341` (stereo not given), the LC retention time is 14.7 min.

For `Cn1c([N+](=O)[O-])cnc1COC(N)=O`, the LC retention time is 13.1 min.

On to `COc1ccc2c3c1OC1C(=O)CCC4(O)C(C2)N(C)CCC314` (stereo not given), for which the LC retention time is 12.6 min. On to `C=CC1(C)CC(OC(=O)CSCCN(CC)CC)C2(C)C(C)CCC3(CCC(=O)C32)C(C)C1O` (stereo not given), for which the LC retention time is 18.1 min.

With `CCN(CC)CC(=O)Nc1c(C)cccc1C`, the LC retention time is 14.2 min.

As to `CCC(=O)C(CC(C)N(C)C)(c1ccccc1)c1ccccc1` (stereo not given), the LC retention time was 18.5 min. `COc1ccc2c3c1OC1C(O)C=CC4C(C2)N(C)CCC341` (stereo not given): the LC retention time is 12.2 min. On to `Cc1cc2c(s1)Nc1ccccc1N=C2N1CCN(C)CC1`, for which the LC retention time is 20.4 min.

Consider `CNC(C)C(O)c1ccccc1` (stereo not given), for which the LC retention time is 12.4 min. Take `Nc1ccc(S(=O)(=O)Nc2nccs2)cc1`: the LC retention time was 13.5 min.

Regarding `NCC1(CC(=O)O)CCCCC1`, the LC retention time is 13.3 min.

In the case of `CC(=O)OC1C=CC2C3Cc4ccc(O)c5c4C2(CCN3C)C1O5` (stereo not given), the LC retention time was 13 min.

Consider `COc1ccc(C(CN(C)C)C2(O)CCCCC2)cc1` (stereo not given), for which the LC retention time is 16.6 min. As for `Cc1noc(NS(=O)(=O)c2ccc(N)cc2)c1C`, the figure is 14.5 min; as for `CC(C)CC(CN)CC(=O)O` (stereo not given), 13.2 min; as for `Nc1nc(N)c2nc(-c3ccccc3)c(N)nc2n1`, 14.7 min.
